From the RepoRT retention time repository (doi:10.1016/j.foodchem.2018.09.045)

Test: RP, Thermo Scientific Syncronis C18, 100 × 2.1 mm, 1.7 µm, 0.3 mL/min, estimated dead time 0.73 min; A: water + 0.1% acetic acid; B: acetonitrile + 0.1% acetic acid; gradient (min/%B) 0/5 1/5 16/95
Conditions: stereoisomer not certain

Row | SMILES | LC retention time [min]
1 | COc1cc(C(=O)O)ccc1O | 5.63
2 | O=c1c(OC2OC(CO)C(O)C(O)C2O)c(-c2ccc(O)c(O)c2)oc2cc(O)cc(O)c12 (stereo unspecified) | 6.71
3 | COc1cc(C=CC=O)ccc1O | 7.9
4 | O=C(O)c1cc(O)ccc1O | 5.48
5 | O=C(O)c1ccc(O)cc1 | 5.41
6 | O=C(O)c1ccc(O)c(O)c1 | 4.44
7 | COc1cc(-c2oc3cc(O)cc(O)c3c(=O)c2O)ccc1O | 9.87
8 | O=C(C=Cc1ccc(O)c(O)c1)OC1CC(O)(C(=O)O)CC(O)C1O (stereo unspecified) | 5.26
9 | O=c1c(-c2ccc(O)cc2)coc2cc(O)cc(O)c12 | 9.53
10 | O=c1cc(-c2ccccc2)oc2cc(O)cc(O)c12 | 11.6
11 | CC1OC(Oc2c(-c3ccc(O)c(O)c3)oc3cc(O)cc(O)c3c2=O)C(O)C(O)C1O (stereo unspecified) | 7.17
12 | O=c1c(O)c(-c2ccccc2)oc2cc(O)cc(O)c12 | 11.8
13 | COc1cc(O)c2c(=O)cc(-c3ccc(O)cc3)oc2c1 | 10.8
14 | O=C(O)Cc1ccc(O)cc1 | 5.62
15 | O=C1CC(c2ccc(O)c(O)c2)Oc2cc(O)cc(O)c21 (stereo unspecified) | 8.59
16 | O=c1cc(-c2ccc(O)c(O)c2)oc2cc(O)cc(O)c12 | 8.69

Row | SMILES | LC retention time [min]
17 | COc1ccc(-c2oc3cc(O)cc(O)c3c(=O)c2O)cc1 | 11.8
18 | O=C1CC(c2ccc(O)cc2)Oc2cc(O)cc(O)c21 (stereo unspecified) | 9.44
19 | O=C(O)C=Cc1ccc(O)cc1 | 6.68
20 | COc1cc(-c2cc(=O)c3c(O)cc(O)cc3o2)ccc1O | 9.94
21 | CC1OC(OCC2OC(Oc3c(-c4ccc(O)c(O)c4)oc4cc(O)cc(O)c4c3=O)C(O)C(O)C2O)C(O)C(O)C1O (stereo unspecified) | 6.44
22 | CC1OC(OC2C(Oc3cc(O)c4c(c3)OC(c3ccc(O)cc3)CC4=O)OC(CO)C(O)C2O)C(O)C(O)C1O (stereo unspecified) | 7.03
23 | COc1ccc(-c2cc(=O)c3c(O)cc(O)cc3o2)cc1 | 12.2
24 | O=C1CC(c2ccccc2)Oc2cc(O)cc(O)c21 (stereo unspecified) | 11.7
25 | O=c1ccc2cc(OC3OC(CO)C(O)C(O)C3O)c(O)cc2o1 (stereo unspecified) | 4.91
26 | O=c1cc(-c2ccc(O)cc2)oc2cc(O)cc(O)c12 | 9.52
27 | COc1cc(C=CC(=O)O)cc(OC)c1O | 7.02
28 | COc1cc(C=CC(=O)O)ccc1O | 7.04
29 | O=c1c(O)c(-c2ccc(O)cc2)oc2cc(O)cc(O)c12 | 9.7
30 | O=C1c2c(O)cc(O)cc2OC(c2ccccc2)C1O (stereo unspecified) | 9.74
31 | O=c1c(O)c(-c2ccc(O)c(O)c2)oc2cc(O)cc(O)c12 | 8.24
